According to the CheMixHub viscosity set:

Test: xn = mol fraction of the nth substance listed

O=C(O)C1CCCCC1 + CCCCCCCCCCO
viscosity [mPa·s], 101 kPa
Conditions | 310 K | 320 K
x2 = 0.0377 | 12.1 | 8.54
x2 = 0.0625 | 11.8 | 8.32
x2 = 0.1776 | 10.6 | 7.57
x2 = 0.2753 | 9.61 | 6.94
x2 = 0.4103 | 8.79 | 6.39
x2 = 0.4952 | 8.45 | 6.15
x2 = 0.5659 | 8.15 | 5.94
x2 = 0.6678 | 7.86 | 5.72
x2 = 0.7657 | 7.7 | 5.6
x2 = 0.8462 | 7.48 | 5.48
x2 = 0.9063 | 7.43 | 5.36
x2 = 0.9593 | 7.41 | 5.3

O=P(O)(O)O + CCCCCCCCO
viscosity [mPa·s], 101 kPa
Conditions | x1 = 0.0266 | x1 = 0.0485 | x1 = 0.0865 | x1 = 0.1055 | x1 = 0.149 | x1 = 0.1867 | x1 = 0.2054 | x1 = 0.2487 | x1 = 0.2753 | x1 = 0.3073
293.15 K | 10.8 | 11.16 | 14.06 | 15.07 | 19.85 | 30.76 | 35.99 | 40.67 | 45.65 | 48.76
303.15 K | 6.465 | 7.085 | 8.327 | 9.414 | 11.8 | 15.79 | 17.99 | 21.76 | 25.77 | 28
313.15 K | 4.823 | 5.02 | 5.655 | 6.55 | 7.186 | 8.765 | 9.786 | 11.34 | 14.18 | 15.19
323.15 K | 3.614 | 3.765 | 3.995 | 4.223 | 4.716 | 5.176 | 5.564 | 6.076 | 6.308 | 6.896

CCCOCC(C)OCC(C)O (configuration not stated) + CCCCCCCO
298.15 K, 101 kPa
Conditions | viscosity [mPa·s]
x1 = 0.0145 | 5.795
x1 = 0.0297 | 5.725
x1 = 0.072 | 5.58
x1 = 0.1172 | 5.426
x1 = 0.1578 | 5.332
x1 = 0.2004 | 5.236
x1 = 0.2276 | 5.185
x1 = 0.2594 | 5.134
x1 = 0.3052 | 5.067
x1 = 0.4171 | 4.913
x1 = 0.4502 | 4.864
x1 = 0.5104 | 4.775
x1 = 0.5572 | 4.699
x1 = 0.6014 | 4.616
x1 = 0.6573 | 4.51
x1 = 0.7008 | 4.419
x1 = 0.7589 | 4.295
x1 = 0.8 | 4.207
x1 = 0.8512 | 4.098
x1 = 0.9118 | 3.985
x1 = 0.9578 | 3.916
x2 = 0.009 | 3.879
x2 = 0.0121 | 3.88

Cl + CCCCCCCO
298.15 K, 101 kPa
Conditions | viscosity [mPa·s]
x1 = 0.05 | 6.22
x1 = 0.1 | 7.02
x1 = 0.15 | 7.6
x1 = 0.19 | 8.18
x1 = 0.23 | 8.66
x1 = 0.26 | 9.02
x1 = 0.29 | 9.22
x1 = 0.32 | 9.3
x1 = 0.34 | 9.26
x1 = 0.37 | 9.08
x1 = 0.39 | 8.86
x1 = 0.41 | 8.62
x1 = 0.43 | 8.4
x1 = 0.45 | 8.2

CCCOCC(C)OCC(C)O (configuration not stated) + CCCCCO
298.15 K, 101 kPa
Conditions | viscosity [mPa·s]
x1 = 0.0566 | 3.194
x1 = 0.1564 | 3.499
x1 = 0.2104 | 3.49
x1 = 0.2577 | 3.486
x1 = 0.3103 | 3.484
x1 = 0.3524 | 3.483
x1 = 0.4027 | 3.481
x1 = 0.4592 | 3.494
x1 = 0.5107 | 3.516
x1 = 0.5585 | 3.545
x1 = 0.6219 | 3.59
x1 = 0.6862 | 3.64
x1 = 0.7322 | 3.684
x1 = 0.7995 | 3.733
x1 = 0.9032 | 3.807
x1 = 0.9629 | 3.849
x2 = 0.0139 | 3.867

CC(=O)OCCC(C)C + CCCCN
303.15 K, 101 kPa
Conditions | viscosity [mPa·s]
x2 = 0.2734 | 0.7086
x2 = 0.4416 | 0.6996
x2 = 0.5646 | 0.6833
x2 = 0.6446 | 0.6711
x2 = 0.7489 | 0.6443
x2 = 0.8075 | 0.6212
x2 = 0.8664 | 0.5934
x2 = 0.8969 | 0.5868

CCCCCCCC/C=C\CCCCCCCC(=O)OCC + CCCCO
viscosity [mPa·s], 100 kPa
Conditions | x1 = 0.1 | x1 = 0.2 | x1 = 0.3 | x1 = 0.4 | x1 = 0.5 | x1 = 0.6 | x1 = 0.7 | x1 = 0.8 | x1 = 0.9
293.15 K | 3.187 | 3.558 | 3.946 | 4.315 | 4.68 | 5.024 | 5.358 | 5.682 | 6.011
298.15 K | 2.818 | 3.143 | 3.481 | 3.808 | 4.131 | 4.437 | 4.732 | 5.013 | 5.31
303.15 K | 2.491 | 2.782 | 3.08 | 3.371 | 3.649 | 3.918 | 4.175 | 4.419 | 4.678
308.15 K | 2.217 | 2.48 | 2.746 | 3.002 | 3.25 | 3.486 | 3.713 | 3.931 | 4.16
313.15 K | 1.983 | 2.223 | 2.46 | 2.683 | 2.897 | 3.103 | 3.3 | 3.49 | 3.691
318.15 K | 1.776 | 1.998 | 2.214 | 2.421 | 2.62 | 2.81 | 2.991 | 3.165 | 3.35
323.15 K | 1.6 | 1.806 | 2.002 | 2.192 | 2.371 | 2.543 | 2.707 | 2.865 | 3.032

CC(=O)OCCC(C)C + CCCCOC(C)=O
viscosity [mPa·s], 101 kPa
Conditions | x1 = 0.2 | x1 = 0.4 | x1 = 0.6 | x1 = 0.8
293.15 K | 0.75 | 0.776 | 0.802 | 0.831
313.15 K | 0.575 | 0.592 | 0.611 | 0.629

CCCCCCCC/C=C\CCCCCCCC(=O)OCC + CCCO
Conditions | viscosity [mPa·s]
303.15 K, 101 kPa, x2 = 0.2 | 4.435

CCCOCC(C)OCC(C)O (configuration not stated) + CCCO
298.15 K, 101 kPa
Conditions | viscosity [mPa·s]
x1 = 0.0061 | 1.977
x1 = 0.0137 | 1.998
x1 = 0.028 | 2.036
x1 = 0.0763 | 2.163
x1 = 0.1234 | 2.28
x1 = 0.1783 | 2.416
x1 = 0.2361 | 2.556
x1 = 0.3132 | 2.74
x1 = 0.3684 | 2.862
x1 = 0.4279 | 2.985
x1 = 0.4905 | 3.102
x1 = 0.5267 | 3.164
x1 = 0.5714 | 3.239
x1 = 0.6634 | 3.388
x1 = 0.7271 | 3.495
x1 = 0.8017 | 3.617
x1 = 0.8701 | 3.728
x1 = 0.9055 | 3.78
x1 = 0.9497 | 3.837
